Earlier results, collected in patent US20120093932A1, “TARGETED SUSTAINED-RELEASE MICROSPHERE OF VASCULAR OCCLUSIVE AGENT CONTAINING SODIUM ALGINATE AND SORAFENIB, PRODUCTION METHOD AND USE THEREOF” (Beijing Shengyiyao Science & Technology Development Co., …, priority 2009, published 2012).

Assays:
[1] = not given; remark: listed apart in the source
[2] = 400 mg orally twice a day; Phase I
[3] = oral administration
[4] = oral single dose, solution containing 100 mg sorafenib

[O-][n+]1ccccc1 [pyridine N-Oxide]
role in vitro compared to sorafenib: plays a similar role to sorafenib

CNC(=O)c1cc(Oc2ccc(NC(=O)Nc3ccc(Cl)c(C(F)(F)F)c3)cc2)ccn1.Cc1ccc(S(=O)(=O)O)cc1 [sorafenib tosylate]
solubility in alcohol ([1]; alcohol): slightly soluble | solubility in aqueous solution ([1]; aqueous solution, becomes higher a little bit under strongly acid condition): low | solubility in polyethylene glycerol 400 ([1]; polyethylene glycerol 400): can be dissolved

CNC(=O)c1cc(Oc2ccc(NC(=O)Nc3ccc(Cl)c(C(F)(F)F)c3)cc2)ccn1 [sorafenib, 4-{4-[3-(4-chloro-3-trifluoro-phenyl)-ureido]-phenoxyl}-pyridine-2-carboxylic methylamine]
tolerability and effectiveness [2]: tolerated and effective | side effects: diarrhea [3]: 58% | side effects: gastrointestinal response [3]: 95% | side effects: indigestion accompanied by appetite loss [3]: 47% | side effects: nausea [3]: 30% | side effects: vomiting [3]: 24% | excreted as glucuronic acid metabolic products in urine [4]: 19% | excreted unchanged (faeces) ([4]; within 14 days): 15% | sorafenib excreted in the faeces ([4]; within 14 days): 77%
